Tests used:
S. aureus VRS2 = experiment: MIC, CLSI broth microdilution, S. aureus VRS2; format: cell-based, Staphylococcus aureus
Method: MICs were evaluated following the CLSI microdilution method in BBL™ Mueller-Hinton II broth (Wikler et al., Clinical Laboratory Standards Institute Document M7-A7, 29 (2009)). Briefly, two-fold serial dilutions of compound were prepared in triplicate in 96-well plates and inoculated with 5×10^5 cfu/mL of the bacterial suspension. Plates were incubated at 37° C. for 16-20 hours.

in vivo = conditions: mouse, in vivo
Method: We conducted first fast PK studies (n=2 mice per time point, 5 time points) dosing the compounds iv, followed by full PK studies for selected compounds (n=3 mice per time point, 10-12 time points per route of administration, iv and po).
A single dose of compound 2 was administered to mice (n=3 per time point) by tail vein injection or by oral gavage at 10 mg/kg. Blood was collected by cardiac puncture in heparinized syringes at 2, 5, 20, and 40 min and at 1, 2, 3, 4, 8, 18, and 24 h after iv dosing and at 0.5, 1, 2, 3, 4, 6, 9, 24, and 30 h after po dosing. Blood was centrifuged to obtain plasma. A 50-μL aliquot of plasma was mixed with 100 μL of acetonitrile containing internal standard (5 μM final concentration), followed by centrifugation at 20,000 g for 15 min. The supernatant was analyzed by reverse-phase UPLC. PK parameters were calculated as described in the Plasma protein binding and Pharmacokinetics sections below (see also Gooyit et al. J. Med. Chem. 54, 6676-6690 (2011)).
The area under the concentration-time curve up to the last quantifiable sampling time (AUC0-last) was calculated by the trapezoidal rule. AUC0-∞ was calculated as AUC0-last+(Clast/k), where Clast is the concentration at the last quantifiable sampling time and k is the elimination rate constant. The concentration at time=0 (C0) was estimated from the first sampling times by back-extrapolation using log-linear regression analysis. Half-lives (t1/2α and t1/2β) were estimated from the linear portion of the initial or terminal concentration-time data by linear regression, where the slope of the line was the rate constant k and t1/2α=ln 2/k. Volume of distribution (Vd) was calculated as the dose divided by the initial concentration (C0). Clearance (CL) was calculated from the dose divided by AUC0-∞. Oral bioavailability (F) was calculated by dividing the AUCpo by the AUCiv, as equivalent iv and po doses were administered.

[1] = Metabolic stability in rat S9; format: in vitro ADME; conditions: rat S9, 2 μM
Method: Aliquots were taken at 0, 5, 10, 20, 30, 40, and 60 min, and mixed with two volumes of acetonitrile containing internal standard. The precipitated protein was centrifuged at 20,000 g for 15 min, and the supernatant was analyzed by reversed-phase UPLC.

PBP1 = biological target: T1, PBP1 (Staphylococcus aureus, UniProt Q53725); experiment: Bocillin FL competition assay, S. aureus membrane preparation; format: binding
T1 construct: Fluorescence labeling of S. aureus membrane preparation (150 μg) by Bocillin FL (30 μM); endogenous in cells; host or cells: S. aureus ATCC 29213 membrane preparation
T1 sequence (Q53725 1-744): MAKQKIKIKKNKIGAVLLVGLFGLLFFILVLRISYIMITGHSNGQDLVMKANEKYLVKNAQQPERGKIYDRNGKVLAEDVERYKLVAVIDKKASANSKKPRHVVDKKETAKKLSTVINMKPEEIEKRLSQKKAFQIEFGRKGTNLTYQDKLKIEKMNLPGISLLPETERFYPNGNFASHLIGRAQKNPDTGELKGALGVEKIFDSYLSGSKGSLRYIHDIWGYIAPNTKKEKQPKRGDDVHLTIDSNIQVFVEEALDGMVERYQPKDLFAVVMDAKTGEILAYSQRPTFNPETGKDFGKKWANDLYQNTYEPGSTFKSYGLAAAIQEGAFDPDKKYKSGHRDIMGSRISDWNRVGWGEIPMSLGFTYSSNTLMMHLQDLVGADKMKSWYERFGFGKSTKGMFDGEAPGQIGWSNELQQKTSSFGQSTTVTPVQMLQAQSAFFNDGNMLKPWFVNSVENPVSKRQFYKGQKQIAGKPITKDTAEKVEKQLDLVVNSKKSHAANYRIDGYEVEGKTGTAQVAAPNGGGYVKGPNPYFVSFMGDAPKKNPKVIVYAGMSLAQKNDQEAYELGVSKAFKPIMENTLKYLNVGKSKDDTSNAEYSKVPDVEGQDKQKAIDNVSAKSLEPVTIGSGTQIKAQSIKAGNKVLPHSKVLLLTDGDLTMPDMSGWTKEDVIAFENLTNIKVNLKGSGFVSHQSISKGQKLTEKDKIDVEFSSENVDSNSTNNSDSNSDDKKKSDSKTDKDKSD
Method: S. aureus (ATCC 29213), a methicillin-sensitive strain, was grown in Difco Luria-Bertani (LB) broth at 37° C. until an OD625˜0.8. Cells were centrifuged at 3,200 g for 30 min at 4° C. and washed once with cold 100 mM NaH2PO4, 50 mM NaHCO3, pH 7.5, buffer. The cells were resuspended in 10 mL cold buffer containing complete EDTA-free protease inhibitor, 200 μg/mL lysostaphin, 15 μg/mL DNase I, 10 mM MgCl2, and 1 mM EDTA and incubated for 30 min at 37° C. Cells were sonicated using a Branson Sonifer for 5×1 min cycles, with 2 min of rest in between each cycle, and the lysate was centrifuged at 3,200 g for 20 min at 4° C. The supernatant was then ultracentrifuged at 32,000 rpm for 1 h at 4° C. and the pellet was washed once with cold buffer. The resulting membrane was resuspended in buffer, quantified using the BCA Protein Assay Kit, and the concentration was adjusted to 9 mg/mL.
The Bocillin FL competition assays were performed with purified PBP2a and membrane extracts. PBP2a was purified using a previously described protocol (Fuda et al., J. Biol. Chem. 279, 40802-40806 (2004)). […] Samples were centrifuged, loaded to SDS-PAGE, the gels were visualized immediately using a Storm840 Scanner, and fluorescence was quantified using ImageQuant software. IC50 values were calculated using GraphPad prism 5, using the previously published equation.

N#Cc1ccc(/C=C/c2nc3ccccc3c(=O)n2-c2cccc(C(=O)O)c2)cc1.[Na] [Compound 2, Sodium (E)-3-(3-carboxyphenyl)-2-(4-cyanostyryl)quinazolin-4(3H)-one]
MIC (S. aureus VRS2; Staphylococcus aureus, VRS2): 2 µg/mL
In vitro AB activity (MIC) (S. aureus VRS2; Table 2.1, S. aureus VRS2): 2 µg/mL
clearance (in vivo; ICR, iv, 10 mg/kg): 7.1 mL/min/kg
concentration at 24 h (in vivo; ICR, iv, 10 mg/kg): 142 ± 53 ng/mL
t1/2elimination (in vivo; ICR, iv, 10 mg/kg): 22 h
half-life (in vivo; ICR, po, 10 mg/kg): 58 h
AUC (in vivo; female, ICR, iv): 23500 ng·h/mL
clearance (in vivo; female, ICR, iv): 7.1 mL/min/kg
Vd (in vivo; female, ICR, iv, 10 mg/kg): 0.0076 L
half-life (in vivo; female, ICR, iv, 10 mg/kg): 22 h
AUC (in vivo; female, ICR, po, 10 mg/kg): 15500 ng·h/mL
bioavailability (in vivo; female, ICR, po, 10 mg/kg, F (oral bioavailability)): 66%
bioavailability (in vivo; 10 mg/kg, F (absolute oral bioavailability)): 66%
AUC(0-inf) (in vivo; iv, 10 mg/kg): 23500 ng·h/mL
AUC(0-t) (in vivo; iv, 10 mg/kg): 19700 ng·h/mL
C0 (in vivo; iv, 10 mg/kg): 33000 ng/mL
Clearance as share of hepatic blood flow in mice (in vivo; iv, 10 mg/kg): less than 10%
Distribution t1/2α (in vivo; iv, 10 mg/kg): 0.243 h
Vd (in vivo; iv, 10 mg/kg): 0.303 L/kg
Volume of distribution (in vivo; iv, 10 mg/kg): 0.3 L/kg
clearance (in vivo; iv, 10 mg/kg): 7.07 mL/min/kg
concentration at 24 h (in vivo; iv, 10 mg/kg): 142 ± 53 ng/mL
t1/2distribution (in vivo; iv, 10 mg/kg): 0.242 h
t1/2elimination (in vivo; iv, 10 mg/kg): 22.3 h
Plasma level at 24 hours (in vivo; iv, 10 mg/kg, 24 h): 142 ± 53 ng/mL
AUC(0-inf) (in vivo; po, 10 mg/kg): 15500 ng·h/mL
AUC(0-t) (in vivo; po, 10 mg/kg): 6550 ng·h/mL
Cmax (in vivo; po, 10 mg/kg): 1290 ng/mL
Time of maximum concentration (in vivo; po, 10 mg/kg): 1 h
half-life (in vivo; po, 10 mg/kg): 58.2 h
t1/2distribution (in vivo; po, 10 mg/kg): 2.06 h
Compound remaining after 1-h incubation [1]: 100%
IC50 (PBP1): 187 µM

— patent publication US10329262B2, “Quinazolinone antibiotics” (priority 2013, dated 2019)
